For 25 compounds, IC50 results are on record in patent publication US20210300936A1, “PYRAZOLOTRIAZOLOPYRIMIDINE DERIVATIVES AS A2A RECEPTOR ANTAGONIST” (BEIGENE, LTD., priority 2018, published 2021).

Each structure is given as a SMILES string.

human A2A receptor (A2AR), sequence (P29274 whole entry): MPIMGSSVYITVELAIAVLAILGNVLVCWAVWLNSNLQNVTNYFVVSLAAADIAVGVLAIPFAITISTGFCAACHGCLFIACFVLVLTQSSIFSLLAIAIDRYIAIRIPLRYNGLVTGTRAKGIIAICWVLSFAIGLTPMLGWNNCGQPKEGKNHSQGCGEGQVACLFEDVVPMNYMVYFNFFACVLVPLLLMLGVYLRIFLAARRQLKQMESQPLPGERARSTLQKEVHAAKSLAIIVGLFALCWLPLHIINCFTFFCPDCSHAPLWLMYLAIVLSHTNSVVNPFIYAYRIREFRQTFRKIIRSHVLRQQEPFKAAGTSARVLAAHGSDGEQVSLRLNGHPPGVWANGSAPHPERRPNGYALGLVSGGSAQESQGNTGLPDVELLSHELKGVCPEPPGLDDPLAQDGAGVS

This test has as its target human A2A receptor (A2AR) (Homo sapiens, UniProt P29274). In words: Luciferase reporter assay (HEK293-A2AR-luc2p/CRE/Hygro cells, 3 nM CGS21680). The test is classed as cell-based. To be noted: 3 nM CGS21680, 5 h incubation. Summed up: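 Antagonist (0.1–10000 nM) and 3 nM CGS21680 were co-added for 5 h to stable HEK293-A2AR-luc2p/CRE cells, 18 h after seeding in 1% FBS medium containing adenosine deaminase. Luminescence was normalized to agonist alone (100%), and IC50 came from the dose–inhibition curve.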
Turning to `CC(C(=O)N1CCN(c2cccc(C(=O)NC3CCCCC3)c2)CC1)(c1ccccc1)n1ncc2c1nc(N)n1nc(-c3ccco3)nc21` (stereo not shown) [Compound A90, 2-(5-amino-2-(furan-2-yl)-7H-pyrazolo[4,3-e][1,2,4]triazolo[1,5-c]pyrimidin-7-yl)-2-phenyl-1-(4-(3-(cyclohexanaminocarbonyl)phenyl)piperazin-1-yl)propan-1-one], half-maximal inhibition (IC50) required 14.1 nM.

With `CC(C(=O)N1CCN(c2cccc(C(=O)NCC3(O)COC3)c2)CC1)(c1ccccc1)n1ncc2c1nc(N)n1nc(-c3ccco3)nc21` (stereo not shown) [Compound A91, 3-(4-(2-(5-amino-2-(furan-2-yl)-7H-pyrazolo[4,3-e][1,2,4]triazolo[1,5-c]pyrimidin-7-yl)-2-phenylpropanoyl)piperazin-1-yl)-N-((3-hydroxyoxetan-3-yl)methyl)benzamide], it took 3.3 nM to reach half-maximal inhibition (IC50).

Regarding `CNC(=O)c1ccc(N2CCN(C(=O)C(C)(c3ccccc3)n3ncc4c3nc(N)n3nc(-c5ccco5)nc43)CC2)cc1` (stereo not shown) [Compound A92, 4-(4-(2-(5-amino-2-(furan-2-yl)-7H-pyrazolo[4,3-e][1,2,4]triazolo[1,5-c]pyrimidin-7-yl)-2-phenylpropanoyl)piperazin-1-yl)-N-methylbenzamide], the IC50 (commonly the midpoint of a concentration-inhibition curve) is 2.7 nM.

In turn, `COCCOc1ccc(N2CCN(C(=O)C(C)(c3ccccc3OC)n3ncc4c3nc(N)n3nc(-c5ccco5)nc43)CC2)cc1` (stereo not shown) [Compound A93, 2-(5-amino-2-(furan-2-yl)-7H-pyrazolo[4,3-e][1,2,4]triazolo[1,5-c]pyrimidin-7-yl)-1-(4-(4-(2-methoxyethoxy)phenyl)piperazin-1-yl)-2-(2-methoxyphenyl)propan-1-one] yielded an IC50 of 0.6 nM.

As for `CC(C(=O)N1CCN(c2ccccc2C(=O)NC2CCCCC2)CC1)(c1ccccc1)n1ncc2c1nc(N)n1nc(-c3ccco3)nc21` (stereo not shown) [Compound A94, 2-(4-(2-(5-amino-2-(furan-2-yl)-7H-pyrazolo[4,3-e][1,2,4]triazolo[1,5-c]pyrimidin-7-yl)-2-phenylpropanoyl)piperazin-1-yl)-N-cyclohexylbenzamide], the IC50 came out at 3.8 nM.

Consider `COCCOc1ccc(N2CCN(C(=O)C(C)(c3ccccc3)n3ncc4c3nc(N)n3nc(-c5nccnc5C)nc43)CC2)cc1` (stereo not shown) [Compound A95, 2-(5-amino-2-(3-methylpyrazin-2-yl)-7H-pyrazolo[4,3-e][1,2,4]triazolo[1,5-c]pyrimidin-7-yl)-1-(4-(4-(2-methoxyethoxy)phenyl)piperazin-1-yl)-2-phenylpropan-1-one], for which the IC50 was found to be 31.1 nM.

For the compound `CN(C)C(=O)c1ccccc1N1CCN(C(=O)C(C)(c2ccccc2)n2ncc3c2nc(N)n2nc(-c4ccco4)nc32)CC1` (stereo not shown) [Compound A96, 2-(4-(2-(5-amino-2-(furan-2-yl)-7H-pyrazolo[4,3-e][1,2,4]triazolo[1,5-c]pyrimidin-7-yl)-2-phenylpropanoyl)piperazin-1-yl)-N,N-dimethylbenzamide], the IC50 worked out at 13.7 nM.

As to `COCCOc1ccc(N2CCN(C(=O)C(C)(Cc3ccccc3)n3ncc4c3nc(N)n3nc(-c5ccco5)nc43)CC2)cc1` (stereo not shown) [Compound A97, 2-(5-amino-2-(furan-2-yl)-7H-pyrazolo[4,3-e][1,2,4]triazolo[1,5-c]pyrimidin-7-yl)-1-(4-(4-(2-methoxyethoxy)phenyl)piperazin-1-yl)-2-methyl-3-phenylpropan-1-one], the IC50 is 335 nM.

In the case of `CC(C(=O)N1CCN(c2ccc(C(=O)NC3CCCCC3)cc2)CC1)(c1ccccc1)n1ncc2c1nc(N)n1nc(-c3ccco3)nc21` (stereo not shown) [Compound A98, 4-(4-(2-(5-amino-2-(furan-2-yl)-7H-pyrazolo[4,3-e][1,2,4]triazolo[1,5-c]pyrimidin-7-yl)-2-phenylpropanoyl)piperazin-1-yl)-N-cyclohexylbenzamide], the IC50 worked out at 7.2 nM.

`CC(C(=O)N1CCN(c2ccccc2C(=O)N2CCCCC2)CC1)(c1ccccc1)n1ncc2c1nc(N)n1nc(-c3ccco3)nc21` (stereo not shown) [Compound A99, 2-(5-amino-2-(furan-2-yl)-7H-pyrazolo[4,3-e][1,2,4]triazolo[1,5-c]pyrimidin-7-yl)-2-phenyl-1-(4-(2-(piperidine-1-carbonyl)phenyl)piperazin-1-yl)propan-1-one] had an IC50 of 28.6 nM.

Consider `CC(C(=O)N1CCN(c2ccccc2C(=O)NCC2(O)COC2)CC1)(c1ccccc1)n1ncc2c1nc(N)n1nc(-c3ccco3)nc21` (stereo not shown) [Compound A100, 2-(4-(2-(5-amino-2-(furan-2-yl)-7H-pyrazolo[4,3-e][1,2,4]triazolo[1,5-c]pyrimidin-7-yl)-2-phenylpropanoyl)piperazin-1-yl)-N-((3-hydroxyoxetan-3-yl)methyl)benzamide], for which half-maximal inhibition (IC50) required 25 nM.

On to `CC(C(=O)N1CCN(c2ccc(OCCN3CCCC3)cc2)CC1)(c1ccccc1)n1ncc2c1nc(N)n1nc(-c3ccco3)nc21` (stereo not shown) [Compound A101, 2-(5-amino-2-(furan-2-yl)-7H-pyrazolo[4,3-e][1,2,4]triazolo[1,5-c]pyrimidin-7-yl)-2-phenyl-1-(4-(4-(2-(pyrrolidin-1-yl)ethoxy)phenyl)piperazin-1-yl)propan-1-one], for which the IC50 stood at 3.9 nM.

On to `CC(C(=O)N1CCN(c2ccc(C(=O)N3CCCCC3)cc2)CC1)(c1ccccc1)n1ncc2c1nc(N)n1nc(-c3ccco3)nc21` (stereo not shown) [Compound A102, 2-(5-amino-2-(furan-2-yl)-7H-pyrazolo[4,3-e][1,2,4]triazolo[1,5-c]pyrimidin-7-yl)-2-phenyl-1-(4-(4-(piperidine-1-carbonyl)phenyl)piperazin-1-yl)propan-1-one], for which it took 9.2 nM to reach half-maximal inhibition (IC50).

`COCCOc1ccc(N2CCN(C(=O)C(C)(c3ccccc3C)n3ncc4c3nc(N)n3nc(-c5ccco5)nc43)CC2)cc1` (stereo not shown) [Compound A103, 2-(5-amino-2-(furan-2-yl)-7H-pyrazolo[4,3-e][1,2,4]triazolo[1,5-c]pyrimidin-7-yl)-1-(4-(4-(2-methoxyethoxy)phenyl)piperazin-1-yl)-2-(o-tolyl)propan-1-one]: inhibition was half-maximal at 1.7 nM (IC50).

Compound `CN(C)C(=O)c1ccc(N2CCN(C(=O)C(C)(c3ccccc3)n3ncc4c3nc(N)n3nc(-c5ccco5)nc43)CC2)cc1` (stereo not shown) [Compound A104, 4-(4-(2-(5-amino-2-(furan-2-yl)-7H-pyrazolo[4,3-e][1,2,4]triazolo[1,5-c]pyrimidin-7-yl)-2-phenylpropanoyl)piperazin-1-yl)-N,N-dimethylbenzamide] returned an IC50 of 5.5 nM.

The compound `COc1ccc(N2CCN(C(=O)C(C)(c3ccccc3)n3ncc4c3nc(N)n3nc(-c5ccco5)nc43)CC2)c(OC)c1` (stereo not shown) [Compound A105, 2-(5-amino-2-(furan-2-yl)-7H-pyrazolo[4,3-e][1,2,4]triazolo[1,5-c]pyrimidin-7-yl)-1-(4-(2,4-dimethoxyphenyl)piperazin-1-yl)-2-phenylpropan-1-one] returned an IC50 of 10.3 nM.

As for `COCCOc1ccc(N2CCN(C(=O)C(C)(c3ccccc3)n3ncc4c3nc(N)n3nc(-c5ccco5)nc43)CC2)c(OC)c1` (stereo not shown) [Compound A106, 2-(5-amino-2-(furan-2-yl)-7H-pyrazolo[4,3-e][1,2,4]triazolo[1,5-c]pyrimidin-7-yl)-1-(4-(2-methoxy-4-(2-methoxyethoxy)phenyl)piperazin-1-yl)-2-phenylpropan-1-one], the IC50 is 8.5 nM.

In turn, `CNCCOc1ccc(N2CCN(C(=O)C(C)(c3ccccc3)n3ncc4c3nc(N)n3nc(-c5ccco5)nc43)CC2)cc1` (stereo not shown) [Compound A107, 2-(5-amino-2-(furan-2-yl)-7H-pyrazolo[4,3-e][1,2,4]triazolo[1,5-c]pyrimidin-7-yl)-1-(4-(4-(2-(methylamino)ethoxy)phenyl)piperazin-1-yl)-2-phenylpropan-1-one] yielded an IC50 of 4.8 nM.

In turn, `CC(C(=O)N1CCN(c2ccc(OCCO)cc2)CC1)(c1ccccc1)n1ncc2c1nc(N)n1nc(-c3ccco3)nc21` (stereo not shown) [Compound A108, 2-(5-amino-2-(furan-2-yl)-7H-pyrazolo[4,3-e][1,2,4]triazolo[1,5-c]pyrimidin-7-yl)-1-(4-(4-(2-hydroxyethoxy)phenyl)piperazin-1-yl)-2-phenylpropan-1-one] registered an IC50 of 3.5 nM.

The compound `CN(C)C(=O)C(c1ccccc1)n1ncc2c1nc(N)n1nc(-c3ccco3)nc21` (stereo not shown) [Compound B1, 2-(5-amino-2-(furan-2-yl)-7H-pyrazolo[4,3-e][1,2,4]triazolo[1,5-c]pyrimidin-7-yl)-N,N-dimethyl-2-phenylacetamide] gave an IC50 of 15.2 nM.

`Nc1nc2c(cnn2C(C(=O)N2CCCCC2)c2ccccc2)c2nc(-c3ccco3)nn12` (stereo not shown) [Compound B2, 2-(5-amino-2-(furan-2-yl)-7H-pyrazolo[4,3-e][1,2,4]triazolo[1,5-c]pyrimidin-7-yl)-2-phenyl-1-(piperidin-1-yl)ethan-1-one] registered an IC50 of 2.9 nM.

Turning to `Nc1nc2c(cnn2C(C(=O)N2CCc3ccccc3C2)c2ccccc2)c2nc(-c3ccco3)nn12` (stereo not shown) [Compound B3, 2-(5-amino-2-(furan-2-yl)-7H-pyrazolo[4,3-e][1,2,4]triazolo[1,5-c]pyrimidin-7-yl)-1-(3,4-dihydroisoquinolin-2(1H)-yl)-2-phenylethan-1-one], 1.9 nM corresponded to half-maximal inhibition (IC50).

For the compound `Nc1nc2c(cnn2C(C(=O)N2CCCc3ccccc32)c2ccccc2)c2nc(-c3ccco3)nn12` (stereo not shown) [Compound B4, 2-(5-amino-2-(furan-2-yl)-7H-pyrazolo[4,3-e][1,2,4]triazolo[1,5-c]pyrimidin-7-yl)-1-(3,4-dihydroquinolin-1(2H)-yl)-2-phenylethan-1-one], half-maximal inhibition (IC50) was put at 2.9 nM.

`Nc1nc2c(cnn2C(C(=O)N2CCc3ccc(Cl)cc3C2)c2ccccc2)c2nc(-c3ccco3)nn12` (stereo not shown) [Compound B5, 2-(5-amino-2-(furan-2-yl)-7H-pyrazolo[4,3-e][1,2,4]triazolo[1,5-c]pyrimidin-7-yl)-1-(7-chloro-3,4-dihydroisoquinolin-2(1H)-yl)-2-phenylethan-1-one] displayed an IC50 of 3 nM.

As to `Nc1nc2c(cnn2C(C(=O)N2CCc3ccc(OC(F)(F)F)cc3C2)c2ccccc2)c2nc(-c3ccco3)nn12` (stereo not shown) [Compound B6, 2-(5-amino-2-(furan-2-yl)-7H-pyrazolo[4,3-e][1,2,4]triazolo[1,5-c]pyrimidin-7-yl)-2-phenyl-1-(7-(trifluoromethoxy)-3,4-dihydroisoquinolin-2(1H)-yl)ethan-1-one], the 50% inhibitory concentration (IC50) is 7 nM.
